From US7517658B2, “Methods for preparing compositions using a SNORF33 receptor” (H. Lundbeck A/S, priority 1999, dated 2009)
Where “and” joins values, the source holds several entries; their conditions need not be identical. Identical values can stand only once.

What was measured:
rSNORF33 [1] = target: T1, rSNORF33 (Rattus norvegicus, UniProt Q923Y9); experiment: Intracellular cAMP release in rSNORF33-transfected COS-7 cells; type: cell-based; parameters: expressed in transfected cells; host or cells: COS-7 (transient)
Description: (§1) The receptor-mediated stimulation or inhibition of cyclic AMP (cAMP) formation may be assayed in cells expressing the mammalian receptors. Cells are plated in 96-well plates or other vessels and preincubated in a buffer such as HEPES buffered saline (NaCl (150 mM), CaCl2 (1 mM), KCl (5 mM), glucose (10 mM)) supplemented with a phosphodiesterase inhibitor such as 5 mM theophylline, with or without protease inhibitor cocktail (For example, a typical inhibitor cocktail contains 2 μg/ml aprotinin, […] leupeptin, and 10 μg/ml phosphoramidon.) for 20 min at 37° C., in 5% CO2. Test compounds are added with or without […] forskolin and incubated for an additional 10 min at 37° C. The medium is then aspirated and the reaction stopped by the addition of 100 mM HCl or other methods. The plates are stored at 4° C. for 15 min, and the cAMP content in the stopping solution is measured by radioimmunoassay. Radioactivity may be quantified using a gamma counter equipped with data reduction software. Specific modifications may be performed to optimize the assay for the receptor or to alter the detection method of cAMP.
(§2) COS-7 cells were transiently transfected with rSNORF33 gene using the calcium phosphate method and plated in 96-well plates. 48 hours after transfection, cells were washed twice with Dulbecco's phosphate buffered saline (PBS) supplemented with 10 mM HEPES, 10 mM glucose, 5 mM theophylline and 10 μM pargyline and were incubated in the same buffer for 20 min at 37° C., in […] 5% CO2. Test compounds were added and cells were incubated for an additional 10 min at 37° C. The medium was then aspirated and the reaction stopped by the addition of 100 mM HCl. The plates were stored at −20° C. for 2-5 days. For cAMP measurement, plates were thawed and the cAMP content in each well was measured by radioimmunoassay cAMP Scintillation Proximity Assay (Amersham Pharmacia Biotech). Radioactivity was quantified using microbeta Trilux counter (Wallac).

hSNORF33 [2] = target: T2, hSNORF33 (Homo sapiens, UniProt Q96RJ0); experiment: [3H]-TYR binding (saturation and displacement) to human SNORF33 COS-7 membranes; parameters: expressed in transfected cells; host or cells: COS-7 (membranes); conditions: human SNORF33 in transfected COS-7 membranes; read-out: Mean Ki ± S.D.M., displacement of [3H]-tyramine
T2 sequence (Q96RJ0 1-339): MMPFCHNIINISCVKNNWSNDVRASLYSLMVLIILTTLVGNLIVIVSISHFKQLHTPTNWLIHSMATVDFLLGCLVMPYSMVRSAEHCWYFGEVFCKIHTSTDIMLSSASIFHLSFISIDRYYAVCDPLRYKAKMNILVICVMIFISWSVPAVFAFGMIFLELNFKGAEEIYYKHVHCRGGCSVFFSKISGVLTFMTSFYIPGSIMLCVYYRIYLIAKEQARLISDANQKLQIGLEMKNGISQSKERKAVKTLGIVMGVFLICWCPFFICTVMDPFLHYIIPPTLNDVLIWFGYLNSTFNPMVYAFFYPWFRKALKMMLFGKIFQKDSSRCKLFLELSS
Description: (§3) [^3H]-TYR and [^3H]-T binding assays were performed essentially as described by Mallard et al. (1992), with minor modifications. Radioligand binding assays were performed by diluting membranes prepared from cells expressing the receptor (with co-expression of the rat G-protein alpha S subunit for human SNORF33) in 25 mM Gly-Gly buffer (Sigma, pH=7.4 @ 0° C.) containing 5 mM ascorbate and 10 μM pargyline (final protein concentration in assay=100-300 μg/ml). Membranes were then incubated with either [^3H]-TYR (American Radiochemicals, specific activity 60 mCi/μmole) or [^3H]-T (Amersham, specific activity 98 mCi/μmole) in the presence or absence of competing ligands on ice for 30 min in a total volume of 250 μl in 96 well microtiter plates. The bound ligand was separated from free by filtration through GF/B filters presoaked in 0.5% polyethyleneimine (PEI), using Tomtec (Wallac) or Brandel Cell Harvester vacuum filtration device. After addition of Ready Safe (Beckman) scintillation fluid, bound radioactivity was quantitated using a Trilux (Wallac) scintillation counter (approximately 20% counting efficiency of bound counts). Data was fit to non-linear curves using GraphPad Prism.
(§4) In this manner, agonist or antagonist compounds that bind to the receptor may be identified as they inhibit the binding of the labeled ligand to the membrane protein of cells expressing the said receptor. Non-specific binding was defined as the amount of radioactivity remaining after incubation of membrane protein in the presence of 10 μM of the unlabeled amine corresponding to the radioligand used. In equilibrium saturation binding assays, membrane preparations or intact cells transfected with the receptor are incubated in the presence of increasing concentrations of the labeled compound to determine the binding affinity of the labeled ligand. The binding affinities of unlabeled compounds may be determined in equilibrium competition binding assays, using a fixed concentration of labeled compound in the presence of varying concentrations of the displacing ligands.

mouse SNORF33 [3] = target: T3, mouse SNORF33 (Mus musculus, UniProt Q923Y8); experiment: [3H]-TYR binding (saturation and displacement) to mouse SNORF33 COS-7 membranes; conditions: mouse SNORF33, displacement of [3H]TYR; read-out: Ki (individual determinations)
T3 construct: expressed in transfected cells; host or cells: COS-7 (membranes)
Description: as §3, §4

mouse SNORF33 [4] = target: T3, mouse SNORF33; experiment: cAMP assay at mouse SNORF33; type: cell-based
Description: as §1, §2

hSNORF33 [5] = target: T2, hSNORF33; experiment: Intracellular cAMP release in human SNORF33-transfected COS-7 cells; type: cell-based; parameters: expressed in transfected cells; host or cells: COS-7 (transient)
Description: as §1, §2

rSNORF33 [6] = target: T1, rSNORF33; experiment: [3H]-TYR binding (saturation and displacement) to rSNORF33-transfected COS-7 membranes; parameters: expressed in transfected cells; host or cells: COS-7 (transient); conditions: rSNORF33 in transfected COS-7 membranes; 2–4 experiments; read-out: Mean Ki ± S.D.M., displacement of [3H]-tyramine
Description: as §3, with “Radioligand” for “[^3H]-TYR and [^3H]-T binding assays were performed essentially as described by Mallard et al. (1992), with minor modifications. Radioligand”
as §4

T3 sequence (Q923Y8 whole entry): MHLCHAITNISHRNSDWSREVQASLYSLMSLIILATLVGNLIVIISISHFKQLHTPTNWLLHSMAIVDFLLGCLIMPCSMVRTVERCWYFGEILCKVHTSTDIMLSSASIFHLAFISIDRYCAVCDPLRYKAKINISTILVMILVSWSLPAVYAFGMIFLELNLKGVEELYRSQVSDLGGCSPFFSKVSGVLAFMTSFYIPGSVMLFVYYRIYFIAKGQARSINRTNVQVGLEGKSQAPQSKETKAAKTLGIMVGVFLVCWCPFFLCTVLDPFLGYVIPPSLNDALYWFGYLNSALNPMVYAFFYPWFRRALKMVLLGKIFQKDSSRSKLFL
T1 sequence (Q923Y9 whole entry): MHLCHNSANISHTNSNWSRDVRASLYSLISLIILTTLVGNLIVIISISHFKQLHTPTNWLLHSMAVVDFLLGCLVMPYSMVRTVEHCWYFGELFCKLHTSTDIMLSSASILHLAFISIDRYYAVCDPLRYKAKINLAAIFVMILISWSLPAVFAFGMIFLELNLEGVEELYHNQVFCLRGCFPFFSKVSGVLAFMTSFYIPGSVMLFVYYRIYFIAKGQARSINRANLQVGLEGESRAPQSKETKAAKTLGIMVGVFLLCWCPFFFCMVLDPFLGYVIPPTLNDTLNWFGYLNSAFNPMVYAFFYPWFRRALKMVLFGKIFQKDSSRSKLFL

NCCc1ccccc1 [β-Phenylethylamine (PEA), β-Phenylethylamine]
EC50 (rSNORF33 [1]): 10 ± 1 nM
Ki (hSNORF33 [2]): 8 ± 6 nM
Ki (mouse SNORF33 [3]): 19 nM and 47 nM
Agonism in the cAMP assay (mouse SNORF33 [4]): full agonists
EC50 (hSNORF33 [5]): 216 ± 149 nM
Ki (rSNORF33 [6]): 56 ± 21 nM
